Literature values in patent US20060153940A1, “Use of physiologically active fatty acids” (priority 2004, published 2006).

Substance: β-escin
- solubility in alcohol (alcohol): can be dissolved in alcohol
- solubility in water (water): practically water-insoluble
